Data on two molecules can be found in US20190119504A1 (Dow Global Technologies LLC, priority 2016, published 2019).

The structures appear in SMILES notation.

Test [1] concerns Chlorella sp. ATCC 7516. The experiment in a line: Algal efficacy testing of dry paint film, modified ASTM 5589. It is filed as cell-based. How it is done: (§1) These paints were then diluted with a biocide free acrylic/silicone based paint and mixed to prepare targeted concentrations of biocide combinations for the testing. The total biocides concentrations obtained were 125, 250, 500, 1000, 2000 and 5000 ppm. After biocides addition or dilution, the paints were mixed 90 seconds with the horse power shaker (AXEL 75M3372/Agitateur SO-10MI) until uniformity was achieved. […] After one day, the paints were applied to Schleicher & Schuell filter paper at 280 μm wet film thickness and dried for 3 days at room temperature avoiding direct exposure to sunlight. […] This sample size allowed for an agar border when the sample disc was placed into the well of the test plate.
Algal efficacy was tested according to modified ASTM 5589 which is a standard accelerated test method for determining resistance of various coatings (including paints) to algal defacement. To accommodate for high-throughput screening, this method was scaled down from petri plates to 6-well plates. Bold Modified Basal Freshwater Nutrient Solution was used as growth medium for the algal culture and Bold's agar was used for the efficacy testing. A single coupon was placed with a pair of sterile forceps at the center of the agar plug (on top) with the painted surface facing upwards. The algal inoculum was prepared by diluting an exponentially growing culture of Chlorella sp. to 1×10^6 cfu/ml.
Each well that contains a tested coupon was inoculated with 1750 μl of algal suspension (1×10^6 cfu/ml) making sure that the whole surface (paint film as well as the agar surrounding it) was evenly covered. The plates were incubated at room temp (21° C.-25° C.) with cyclic exposure to 14 hours fluorescent light followed by 10 hours darkness, for a period of three weeks.
(§2) The SI is calculated based on F. C. Kull et.
SI=Qa/QA+Qb/QB • Qa=the concentration of Antimicrobial A in the blend • QA=the concentration of Antimicrobial A as the only biocide • Qb=the concentration of Antimicrobial B in the blend • QB=the concentration of Antimicrobial B as the only antimicrobial […]

For test [2], the system named is Aspergillus niger DSMZ 1957. The test is described as follows: Fungal efficacy testing of dry paint film, modified ASTM 5590. It is filed as cell-based. The following applies: A. niger 1957, three weeks. How it is done:
as §1
ASTM 5590 is a standard accelerated test method for determining resistance of various coatings (including paints) to fungal defacement. To accommodate for high-throughput screening, this method was scaled down from petri plates to 6-well plates. […] A single coupon was placed with a pair of sterile forceps at the center of the agar plug (on top) with the painted surface facing upwards.
as §2
SI=Qa/QA+Qb/QB • Qa=the concentration of Antimicrobial A in the blend • QA=the concentration of Antimicrobial A as the only biocide • Qb=the concentration of Antimicrobial B in the blend • QB=the concentration of Antimicrobial B as the only antimicrobial
SI value of <1 in the formula indicates a synergism of the blended biocides exists.

By inhibition is commonly meant the share of the control response that was lost under treatment. As to `Cc1ccc(S(=O)(=O)C(I)I)cc1` [DIMTS, Diiodomethyl p-tolyl sulfone], the inhibition at 5000 ppm in test [1] (504 h, total conc 5000 ppm, three weeks, color intensity vs blank) amounted to 95%. Also, the “Total conc, ppm (concentration used as minimum inhibitory concentration for SI; pass level 75% inhibition)” value in test [1] (total active ingredient in liquid paint, dry film, three weeks) turned out to be 5000 ppm. For the same molecule, the “Total conc, ppm (concentration used as minimum inhibitory concentration for SI; pass level 75% inhibition; where pass not reached, concentration tested)” value in test [2] (total active ingredient in liquid paint, dry film) is 2000 ppm. The inhibition at 2000 ppm in test [2] (Aspergillus niger, DSMZ1957, 504 h, total conc 2000 ppm, area covered, increments of 5%) was found to be 95%.

For the molecule `O=c1[nH]c2c(c(=O)n1C1CCCCC1)CCC2` [LENACIL, 3-Cyclohexyl-6,7-dihydro-1H-cyclopentapyrimidine-2,4-(3H,5H)-dione], the inhibition at 1000 ppm in test [1] (504 h) was determined as 90%. Moreover, in test [2] (Aspergillus niger, DSMZ1957, 504 h, total conc 10000 ppm, area covered, increments of 5%), the inhibition at 10000 ppm is 0%.
